≈ marks a conversion by molar mass, not a printed value.
Tests used:
[1] = Inhibition of Escherichia coli DNA gyraseB calculated by AutoDock docking into the ATP binding site
Staphylococcus aureus [2] = experiment: Antimicrobial activity against methicillin-sensitive Staphylococcus aureus 209P after 24 hrs by microdilution assay; format: functional
Staphylococcus aureus [3] = experiment: Antimicrobial activity against methicillin-resistant Staphylococcus aureus OM584 after 24 hrs by microdilution assay; format: functional; conditions: OM584, 24 h
Escherichia coli = experiment: Antimicrobial activity against Escherichia coli K-12 after 24 hrs by microdilution assay; format: functional; conditions: K-12, 24 h
Staphylococcus aureus [4] = experiment: Antimicrobial activity against methicillin-resistant Staphylococcus aureus COL after 24 hrs by microdilution assay; format: functional
[5] = Inhibition of Escherichia coli DNA gyraseB assessed as inhibition of pBR322 supercoiling by densitometry
Staphylococcus aureus [6] = experiment: Antimicrobial activity against methicillin-resistant Staphylococcus aureus OM481 after 24 hrs by microdilution assay; format: functional; conditions: OM481, 24 h
Staphylococcus aureus [7] = experiment: Antimicrobial activity against methicillin-resistant Staphylococcus aureus N315 after 24 hrs by microdilution assay; format: functional; conditions: N315, 24 h
Enterococcus [8] = experiment: Antimicrobial activity against vancomycin-resistant Enterococcus FN-1 after 24 hrs by microdilution assay; format: functional; conditions: FN-1, 24 h
Enterococcus [9] = experiment: Antimicrobial activity against vancomycin-resistant Enterococcus NCTC 12201 after 24 hrs by microdilution assay; format: functional; conditions: NCTC 12201, 24 h
Staphylococcus aureus [10] = experiment: Antimicrobial activity against vancomycin intermediate-resistant Staphylococcus aureus Mu50 after 24 hrs by microdilution assay; format: functional; conditions: Mu50, 24 h

Row | Structure (SMILES) | Ki [1] [nM] | MIC (Staphylococcus aureus [2]) [µg/mL] | MIC (Staphylococcus aureus [3]) [µg/mL] | MIC (Escherichia coli) [µg/mL] | MIC (Staphylococcus aureus [4]) [µg/mL] | IC50 [5] [nM] | MIC (Staphylococcus aureus [6]) [µg/mL] | MIC (Staphylococcus aureus [7]) [µg/mL] | MIC (Enterococcus [8]) [µg/mL] | MIC (Enterococcus [9]) [µg/mL] | MIC (Staphylococcus aureus [10]) [µg/mL]
1 | CCn1cc(C(=O)O)c(=O)c2cc(F)c(N3CCNCC3)cc21 [NORFLOXACIN] | 0.09 | 0.5 (≈ 1.57 µM) | 128 (≈ 401 µM) | 0.25 (≈ 0.783 µM) | 1 (≈ 3.13 µM) | 90 | 64 (≈ 200 µM) | 2 (≈ 6.26 µM) |  |  | 
2 | CN[C@H](CC(C)C)C(=O)N[C@H]1C(=O)N[C@@H](CC(N)=O)C(=O)N[C@H]2C(=O)N[C@H]3C(=O)N[C@H](C(=O)N[C@H](C(=O)O)c4cc(O)cc(O)c4-c4cc3ccc4O)[C@H](O)c3ccc(c(Cl)c3)Oc3cc2cc(c3O[C@@H]2O[C@H](CO)[C@@H](O)[C@H](O)[C@H]2O[C@H]2C[C@](C)(N)[C@H](O)[C@H](C)O2)Oc2ccc(cc2Cl)[C@H]1O [VANCOMYCIN] |  | 0.25 (≈ 0.173 µM) | 0.25 (≈ 0.173 µM) |  | 0.25 (≈ 0.173 µM) |  | 0.25 (≈ 0.173 µM) | 0.25 (≈ 0.173 µM) | > 128 | > 128 | 8 (≈ 5.52 µM)

— ChEMBL document CHEMBL1221243, “Design, synthesis, and biological evaluation of a novel series of quercetin diacylglucosides as potent anti-MRSA and anti-VRE agents” (Bioorg Med Chem Lett, 2010)
